According to patent publication US8772332B2, “Arylpropionyl-alpha-pyrone antibacterial agents” (priority 2010, dated 2014):
pIC50: −log10 of the molar value. In brackets after ≈: the same amount, converted by molar mass.

Key:
[1] = target: E. coli RNA polymerase σ70 holoenzyme (Escherichia coli, UniProt P0A8T7+P0A8V2); experiment: Fluorescence-detected RNA polymerase assay, E. coli RNA polymerase; format: biochemical; conditions: RiboGreen fluorescence, read-out: IC50 E. coli RNAP
Method: Fluorescence-detected RNA polymerase assays with E. coli RNA polymerase were performed by a modification of the procedure of Kuhlman et al., 2004 [Kuhlman, P., Duff, H. & Galant, A. (2004) A fluorescence-based assay for multisubunit DNA-dependent RNA polymerases. Anal. Biochem. 324, 183-190]. Reaction mixtures contained (20 μl): 0-100 nM test compound, 75 nM E. coli RNA polymerase σ^70 holoenzyme, 20 nM 384 bp DNA fragment containing the bacteriophage T4 N25 promoter, 100 μM ATP, 100 μM GTP, 100 μM UTP, 100 μM CTP, 50 mM Tris-HCl, pH 8.0, 100 mM KCl, 10 mM MgCl2, 1 mM DTT, 10 μg/ml bovine serum albumin, and 5.5% glycerol. Reaction components other than DNA and NTPs were pre-incubated for 10 min at 37° C. Reactions were carried out by addition of DNA and incubation for 5 min at 37° C., followed by addition of NTPs and incubation for 60 min at 37° C. DNA was removed by addition of 1 μl 5 mM CaCl2 and 2 U DNaseI (Ambion, Inc.), followed by incubation for 90 min at 37° C. RNA was quantified by addition of 100 μl RiboGreen RNA Quantitation Reagent (Invitrogen, Inc.; 1:500 dilution in Tris-HCl, pH 8.0, 1 mM EDTA), followed by incubation for 10 min at 25° C., followed by measurement of fluorescence intensity [excitation wavelength=485 nm and emission wavelength=535 nm; QuantaMaster QM1 spectrofluorometer (PTI, Inc.)]. […]

[2] = test system: Mycobacterium tuberculosis H37Rv; experiment: MIC, microplate Alamar Blue assay; format: cell-based
From the text: MICs for Mycobacterium tuberculosis were quantified using microplate Alamar Blue assays as described [Collins, L. & Franzblau, S. (1997) Microplate Alamar Blue assay versus BACTEC 460 system for high-throughput screening of compounds against Mycobacterium tuberculosis and Mycobacterium avium. Antimicrob. Agents Chemother. 41, 1004-1009].

[3] = test system: Enterococcus faecalis ATCC 19433; experiment: MIC, spiral gradient endpoint assay; format: cell-based; conditions: ATCC19433, Mueller-Hinton II agar, 16 h at 37° C., read-out: MIC E. faecalis 19433
From the text: (§1) Minimum inhibitory concentrations (MICs) for Staphylococcus aureus ATCC 12600, Staphylococcus aureus ATCC 13709 MSSA, Staphylococcus aureus BAA-1707 MRSA (MW2), Staphylococcus aureus BAA-1717 MRSA (USA300), Enterococcus faecalis ATCC 19433, Enterococcus faecium ATCC19434, and Escherichia coli D21f2tolC were quantified using spiral gradient endpoint assays, essentially as described [Wallace, A. and Corkill, J. (1989) Application of the spiral plating method to study antimicrobial action. J. Microbiol. Meths. 10, 303-310; Paton, J., Holt, A., and Bywater, M. (1990) Measurement of MICs of antibacterial agents by spiral gradient endpoint compared with conventional dilution methods. Int. J. Exp. Gin. Chemother. 3, 31-38; Schalkowsky S. (1994) Measures of susceptibility from a spiral gradient of drug concentrations. Adv. Exp. Med. Biol. 349, 107-120]. Assays employed exponential-gradient plates containing 150 mm×4 mm Mueller-Hinton II cation-adjusted agar and 0.4-100 μg/ml of test compound. Plates were prepared using an Autoplate 4000 spiral plater (Spiral Biotech, Inc.). Saturated overnight cultures were swabbed radially onto plates, and plates were incubated for 16 h at 37° C. For each culture, the streak length was measured using a clear plastic template (Spiral Biotech, Inc.), the test-compound concentration at the streak endpoint was calculated using the program SGE (Spiral Biotech, Inc.), and the MIC was defined as the calculated test-compound concentration at the streak endpoint.

[4] = test system: Enterococcus faecium ATCC19434; experiment: MIC, spiral gradient endpoint assay; format: cell-based; conditions: Mueller-Hinton II agar, 16 h at 37° C., read-out: MIC E. faecium 19434
From the text: as §1

[5] = test system: Escherichia coli D21f2tolC; experiment: MIC, spiral gradient endpoint assay; format: cell-based; conditions: 16 h, read-out: MIC E. coli D21f2tolC
From the text: as §1

[6] = test system: Staphylococcus aureus ATCC 12600; experiment: MIC, spiral gradient endpoint assay; format: cell-based; conditions: ATCC12600, Mueller-Hinton II agar, 16 h at 37° C., read-out: MIC S. aureus 12600
From the text: as §1

[7] = test system: Staphylococcus aureus ATCC 13709 MSSA; experiment: MIC, spiral gradient endpoint assay; format: cell-based; conditions: Mueller-Hinton II agar, 16 h at 37° C., read-out: MIC S. aureus 13709
From the text: as §1

[8] = test system: Staphylococcus aureus BAA-1707 MRSA (MW2); experiment: MIC, spiral gradient endpoint assay; format: cell-based; conditions: Mueller-Hinton II agar, 16 h at 37° C., read-out: MIC S. aureus MRSA 1707
From the text: as §1

[9] = test system: Staphylococcus aureus BAA-1717 MRSA (USA300); experiment: MIC, spiral gradient endpoint assay; format: cell-based; conditions: Mueller-Hinton II agar, 16 h at 37° C., read-out: MIC S. aureus MRSA 1717
From the text: as §1

Chain of E. coli RNA polymerase σ70 holoenzyme (P0A8V2 whole entry, the tested form may be a part): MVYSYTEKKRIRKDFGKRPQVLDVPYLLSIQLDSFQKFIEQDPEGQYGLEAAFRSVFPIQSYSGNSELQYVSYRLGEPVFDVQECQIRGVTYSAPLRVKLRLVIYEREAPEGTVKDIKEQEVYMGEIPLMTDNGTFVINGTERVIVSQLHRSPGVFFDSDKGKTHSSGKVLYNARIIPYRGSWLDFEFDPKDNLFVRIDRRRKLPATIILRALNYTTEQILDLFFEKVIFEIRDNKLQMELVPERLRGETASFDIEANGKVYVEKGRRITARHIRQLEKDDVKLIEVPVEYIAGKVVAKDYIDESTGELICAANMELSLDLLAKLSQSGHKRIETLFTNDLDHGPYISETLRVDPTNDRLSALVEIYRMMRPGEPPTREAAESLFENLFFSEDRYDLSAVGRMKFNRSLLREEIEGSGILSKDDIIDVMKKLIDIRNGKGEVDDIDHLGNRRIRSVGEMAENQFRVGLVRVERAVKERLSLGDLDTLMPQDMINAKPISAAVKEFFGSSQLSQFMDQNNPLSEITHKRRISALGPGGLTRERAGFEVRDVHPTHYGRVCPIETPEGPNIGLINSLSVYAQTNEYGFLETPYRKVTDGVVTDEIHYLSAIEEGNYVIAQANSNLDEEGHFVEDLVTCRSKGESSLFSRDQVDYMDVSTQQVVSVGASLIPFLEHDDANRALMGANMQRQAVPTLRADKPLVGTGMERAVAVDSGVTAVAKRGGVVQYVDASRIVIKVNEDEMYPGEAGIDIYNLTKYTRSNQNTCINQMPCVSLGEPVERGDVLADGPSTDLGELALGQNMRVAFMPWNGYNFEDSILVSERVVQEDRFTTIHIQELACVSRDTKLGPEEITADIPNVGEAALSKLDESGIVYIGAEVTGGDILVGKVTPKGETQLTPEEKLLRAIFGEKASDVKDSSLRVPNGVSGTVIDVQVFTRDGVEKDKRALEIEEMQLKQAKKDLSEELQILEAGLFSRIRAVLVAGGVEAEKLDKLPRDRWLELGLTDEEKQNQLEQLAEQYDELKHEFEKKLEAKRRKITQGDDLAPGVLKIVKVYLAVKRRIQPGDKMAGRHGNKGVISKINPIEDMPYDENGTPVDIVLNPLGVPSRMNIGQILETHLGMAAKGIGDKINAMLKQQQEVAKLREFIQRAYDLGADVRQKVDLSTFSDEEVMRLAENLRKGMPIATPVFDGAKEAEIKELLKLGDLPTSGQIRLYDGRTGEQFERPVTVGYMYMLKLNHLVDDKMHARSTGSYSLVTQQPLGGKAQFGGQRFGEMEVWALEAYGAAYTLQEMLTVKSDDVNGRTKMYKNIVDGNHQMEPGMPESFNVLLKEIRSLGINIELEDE
Chain of E. coli RNA polymerase σ70 holoenzyme (P0A8T7 whole entry, the tested form may be a part): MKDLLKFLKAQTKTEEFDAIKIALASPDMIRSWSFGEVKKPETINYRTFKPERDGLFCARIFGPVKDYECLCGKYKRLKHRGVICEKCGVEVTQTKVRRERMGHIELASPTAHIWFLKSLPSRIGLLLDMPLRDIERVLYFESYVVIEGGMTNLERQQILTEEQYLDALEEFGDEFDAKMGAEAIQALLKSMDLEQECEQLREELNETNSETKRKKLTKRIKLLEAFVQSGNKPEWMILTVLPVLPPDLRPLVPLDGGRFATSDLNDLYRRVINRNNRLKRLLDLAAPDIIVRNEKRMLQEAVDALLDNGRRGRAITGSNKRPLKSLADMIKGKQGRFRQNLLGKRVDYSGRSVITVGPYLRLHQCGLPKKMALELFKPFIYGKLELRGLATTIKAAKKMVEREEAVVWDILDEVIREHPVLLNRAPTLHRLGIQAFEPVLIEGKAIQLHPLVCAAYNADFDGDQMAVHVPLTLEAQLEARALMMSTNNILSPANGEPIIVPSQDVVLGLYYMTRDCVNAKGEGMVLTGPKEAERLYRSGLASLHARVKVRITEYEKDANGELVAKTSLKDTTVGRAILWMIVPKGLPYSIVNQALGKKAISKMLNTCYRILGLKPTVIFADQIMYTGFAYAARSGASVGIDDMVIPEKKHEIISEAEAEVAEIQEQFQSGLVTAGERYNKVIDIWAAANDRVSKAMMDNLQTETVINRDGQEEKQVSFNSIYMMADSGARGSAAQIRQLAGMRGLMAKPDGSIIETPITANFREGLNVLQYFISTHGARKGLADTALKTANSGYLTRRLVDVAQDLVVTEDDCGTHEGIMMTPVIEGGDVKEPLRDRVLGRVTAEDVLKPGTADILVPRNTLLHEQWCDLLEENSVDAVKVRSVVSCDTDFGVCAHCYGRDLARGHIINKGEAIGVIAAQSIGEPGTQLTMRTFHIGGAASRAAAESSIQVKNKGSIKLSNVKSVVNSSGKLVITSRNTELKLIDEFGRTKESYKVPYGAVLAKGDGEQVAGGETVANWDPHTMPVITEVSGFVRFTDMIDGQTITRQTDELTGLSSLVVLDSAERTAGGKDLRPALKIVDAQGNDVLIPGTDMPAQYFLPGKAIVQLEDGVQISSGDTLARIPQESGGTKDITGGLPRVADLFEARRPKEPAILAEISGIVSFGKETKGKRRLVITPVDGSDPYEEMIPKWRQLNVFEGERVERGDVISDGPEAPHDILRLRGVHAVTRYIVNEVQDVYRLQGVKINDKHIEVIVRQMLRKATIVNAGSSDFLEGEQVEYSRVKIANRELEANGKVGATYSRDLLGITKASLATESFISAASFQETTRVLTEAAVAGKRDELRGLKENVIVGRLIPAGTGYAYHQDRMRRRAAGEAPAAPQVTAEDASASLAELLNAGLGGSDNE
Chain of E. coli RNA polymerase σ70 holoenzyme (P0A7Z4 whole entry partner, the tested form may be a part): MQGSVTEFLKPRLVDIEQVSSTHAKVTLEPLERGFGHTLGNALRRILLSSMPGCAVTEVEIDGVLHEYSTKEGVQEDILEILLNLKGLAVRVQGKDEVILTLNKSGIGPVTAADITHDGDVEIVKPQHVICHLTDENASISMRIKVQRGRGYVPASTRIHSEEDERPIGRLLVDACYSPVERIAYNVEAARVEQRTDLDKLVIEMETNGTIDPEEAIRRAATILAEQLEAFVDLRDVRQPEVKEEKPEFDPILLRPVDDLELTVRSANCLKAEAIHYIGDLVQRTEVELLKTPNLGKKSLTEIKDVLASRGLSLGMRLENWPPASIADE
Chain of E. coli RNA polymerase σ70 holoenzyme (P0A800 whole entry partner, the tested form may be a part): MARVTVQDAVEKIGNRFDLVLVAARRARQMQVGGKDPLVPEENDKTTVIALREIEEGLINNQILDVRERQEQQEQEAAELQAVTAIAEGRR
Chain of E. coli RNA polymerase σ70 holoenzyme (P00579 whole entry partner, the tested form may be a part): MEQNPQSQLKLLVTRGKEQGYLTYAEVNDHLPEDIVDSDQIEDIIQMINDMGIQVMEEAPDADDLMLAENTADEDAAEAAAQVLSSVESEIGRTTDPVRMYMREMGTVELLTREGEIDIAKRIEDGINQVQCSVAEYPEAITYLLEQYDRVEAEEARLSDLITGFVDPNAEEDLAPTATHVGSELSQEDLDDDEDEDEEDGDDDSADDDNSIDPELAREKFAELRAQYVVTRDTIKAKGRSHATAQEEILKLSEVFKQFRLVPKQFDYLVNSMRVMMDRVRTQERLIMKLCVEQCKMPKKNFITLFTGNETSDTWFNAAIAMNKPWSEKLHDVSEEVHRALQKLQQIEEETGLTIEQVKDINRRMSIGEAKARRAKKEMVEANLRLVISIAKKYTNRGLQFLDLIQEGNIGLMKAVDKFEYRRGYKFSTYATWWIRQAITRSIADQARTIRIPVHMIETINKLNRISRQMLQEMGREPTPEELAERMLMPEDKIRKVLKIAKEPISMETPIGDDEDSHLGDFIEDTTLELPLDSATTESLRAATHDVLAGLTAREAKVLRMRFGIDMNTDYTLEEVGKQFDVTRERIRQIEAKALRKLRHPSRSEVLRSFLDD

## CCCCCC1=CC(=O)C(C(=O)CCc2ccccc2)C(=O)O1 (stereo not drawn) [Compound 1, 4-hydroxy-6-pentyl-3-(3-phenylpropanoyl)-2-pyrone]
[1]
  pIC50: 4.43
[2]
  MIC: 9 µg/mL (≈ 28.6 µM)
[3]
  MIC: 3 µg/mL (≈ 9.54 µM)
[4]
  MIC: 7 µg/mL (≈ 22.3 µM)
[5]
  MIC: 3 µg/mL (≈ 9.54 µM)
[6]
  MIC: 6 µg/mL (≈ 19.1 µM)
[7]
  MIC: 9 µg/mL (≈ 28.6 µM)
[8]
  MIC: 5 µg/mL (≈ 15.9 µM)
[9]
  MIC: 8 µg/mL (≈ 25.4 µM)
